We go through 10 compounds from ChEMBL document CHEMBL1201862, “PubChem BioAssay data set” (2004).

As usually defined, the GI50 is the concentration giving 50% growth inhibition.

“And” between values parts separate entries of the source, which are not always exact repeats. Equal values may be shown once.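 96-well plates; 48 h exposure; 5 concentrations. Endpoints by linear interpolation between flanking doses. Not reached: highest tested concentration assigned. GI50 = concentration required for 50% inhibition of growth.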 The source made the active and inactive calls. Cut-off read from the data, not from the text of the source: active = GI50 up to about 1.1 µM and inactive = higher.

Holding throughout (experiment): DTP human tumour cell line panel, 48 h
Experiment [1] concerns HCT-116.
Experiment [2] concerns SF-295.
Experiment [3] concerns SK-OV-3.
For experiment [4], the system named is NCI-H460.
Experiment [5] has as its system SK-MEL-28.
The subject of experiment [6] is HOP-92.
Experiment [7] has as its system OVCAR-4.
Experiment [8] relates to OVCAR-8.
For experiment [9], the system named is T47D.
Experiment [10] has as its system MOLT-4.
Experiment [11] relates to COLO 205.
The subject of experiment [12] is HOP-62.
Experiment [13] has as its system SNB-75.
For experiment [14], the system named is SW-620.
The test system of experiment [15] is DU-145.
Experiment [16] relates to HT-29.
The subject of experiment [17] is RPMI-8226.
In experiment [18] the test system is UACC-257.
In experiment [19] the test system is Hs-578T.
Experiment [20] deals with MDA-MB-435.

Regarding `C#CCSc1nc(-c2ccco2)n[nH]1`, the GI50 in experiment [1], in experiment [2], in [3], in [4], in experiment [5] and in [6] was > 100 µM (inactive) throughout. Further, the GI50 in experiment [7] is > 100 µM (inactive); in experiment [8], > 100 µM (inactive); in experiment [9], > 100 µM (inactive); in experiment [10] it was > 100 µM (inactive); in experiment [11] it was > 100 µM (inactive); in [12], 49.3 µM (inactive). The GI50 in experiment [13], in experiment [14], in experiment [15], in experiment [16], in experiment [17] and in experiment [18] was > 100 µM (inactive) each time. The GI50 in experiment [19] and in experiment [20] was > 100 µM (inactive) throughout.
Regarding `Cc1ccc(S(=O)(=O)n2c3c(c4ccccc42)CCN2C(=O)C(S(=O)(=O)c4ccccc4)=CCC32)cc1` (stereo not given), the GI50 was 0.17 µM (active) in [1]; 1.79 µM (inactive) in experiment [2]; 1.3 µM (inactive) in experiment [3]; 0.368 µM (active) in [4]; 0.168 µM (active) in experiment [5]; 0.149 µM (active) in experiment [6]. For the same compound, the GI50 in experiment [7] is 0.179 µM (active); in experiment [8], 0.167 µM (active); in experiment [9], 0.154 µM (active); in [10], 0.304 µM (active); in [11] it was 0.236 µM (active); in [12], 0.24 µM (active). In addition, the GI50 in experiment [13] was 0.157 µM (active); in experiment [14] it was 0.281 µM (active); in experiment [15] it was 0.17 µM (active); in experiment [16], 0.212 µM (active); in experiment [17], 0.327 µM (active); in experiment [18], 0.169 µM (active). Further, the results for the GI50 in experiment [19] and in experiment [20] were 0.579 µM (active) and 0.211 µM (active), respectively.
Take `O=C(O)CC(NC(=O)/C(=C/c1ccccc1)NC(=O)c1ccccc1)C(=O)O` (stereo not given): the GI50 in experiment [1], in [2], in experiment [3], in [4], in experiment [5] and in [6] was > 100 µM (inactive) in each case. Also, the GI50 in experiment [7], in experiment [8], in experiment [9], in experiment [10], in experiment [11] and in experiment [12] was > 100 µM (inactive) each time. Besides, the GI50 in [13], in experiment [14], in experiment [15], in experiment [16], in [17] and in [18] was > 100 µM (inactive) each time. Besides, the GI50 in experiment [19] and in [20] was > 100 µM (inactive) throughout.
In the case of `COC1C(=O)CCC2(CO2)C1(O)C1(C)OC1CCC(C)C` (stereo not given), the GI50 in [1] is 21.5 µM (inactive); in [2], 13.6 µM (inactive); in experiment [3], > 100 µM (inactive); in [4] it was < 0.01 µM (active); in experiment [5], 21.8 µM (inactive); in experiment [6] it was > 100 µM (inactive). The GI50 in experiment [7] was > 100 µM (inactive); in experiment [8], 28 µM (inactive); in experiment [9], 52.8 µM (inactive); in experiment [10] it was 40.1 µM (inactive); in experiment [11], 23.9 µM (inactive); in experiment [12], 54.5 µM (inactive). For the same compound, the GI50 in experiment [13] was > 100 µM (inactive); in experiment [14], 19.8 µM (inactive); in experiment [15], 5.6 µM (inactive); in experiment [16], 22.2 µM (inactive); in experiment [17], > 100 µM (inactive); in experiment [18], > 100 µM (inactive). Moreover, the figures for the GI50 in experiment [19] and in [20] were 84.3 µM (inactive) and 61.1 µM (inactive), respectively.
With `S=C1N=C(Cl)/C(=C\c2ccccc2)N1`, the GI50 in experiment [1], in experiment [2], in experiment [3], in experiment [4], in experiment [5] and in [6] was > 100 µM (inactive) in each case. Besides, the GI50 in experiment [7], in experiment [8], in [9], in [10], in experiment [11] and in [12] was > 100 µM (inactive) in each case. For the same compound, the GI50 in experiment [13], in [14], in experiment [15], in [16], in experiment [17] and in experiment [18] was > 100 µM (inactive) throughout. Besides, the GI50 in [19] and in experiment [20] was > 100 µM (inactive) throughout.
For the compound `CC(C)CCNC(=O)c1ccc(CNC(=O)/C=C/c2cccc(Oc3ccccc3)c2)cc1`, the GI50 in experiment [1] was 24.5 µM (inactive); in experiment [2], 23.8 µM (inactive); in [3], 33.1 µM (inactive); in [4], 34.3 µM (inactive); in experiment [5] it was > 100 µM (inactive); in [6], 53.2 µM (inactive). Further, the GI50 in experiment [7] is 27.7 µM (inactive); in experiment [8], 25.9 µM (inactive); in [9] it was 79.3 µM (inactive); in experiment [10] it was > 100 µM (inactive); in experiment [11] it was > 100 µM (inactive); in experiment [12] it was 18.7 µM (inactive). The GI50 in [13] was 34.9 µM (inactive); in experiment [14], 41.4 µM (inactive); in experiment [15], 70.3 µM (inactive); in [16], 30.5 µM (inactive); in experiment [17] it was 67.9 µM (inactive); in experiment [18], 23.2 µM (inactive). The GI50 is > 100 µM (inactive) in experiment [19] and 13.6 µM (inactive) in [20].
With `CC(CN(C)C)C(=O)/C=C/c1ccc(Cl)c(Cl)c1` (stereo not given), the GI50 was 1.56 µM (inactive) in experiment [1]; 3.44 µM (inactive) in [2]; 4.55 µM (inactive) in experiment [3]; 2.24 µM (inactive) in [4]; 3.37 µM (inactive) in [5]; 1.68 µM (inactive) in [6]. Moreover, the GI50 is 4.76 µM (inactive) in experiment [7]; 1.52 µM (inactive) in experiment [8]; 24.7 µM (inactive) in experiment [9]; 2.67 µM (inactive) in experiment [10]; 1.3 µM (inactive) in [11]; 2.96 µM (inactive) in experiment [12]. The GI50 is 19.1 µM (inactive) in [13]; 2.07 µM (inactive) in [14]; > 100 µM (inactive) in experiment [15]; 1.67 µM (inactive) in experiment [16]; 0.338 µM (active) in [17]; 2.38 µM (inactive) in experiment [18]. Further, the GI50 in [19] is 3.69 µM (inactive); in experiment [20] it was 1.63 µM (inactive).
As to `N#Cc1c(-c2ccccc2)[nH]c(=O)n(C2OC(CO)C(O)C(O)C2O)c1=O` (stereo not given), the GI50 in experiment [1], in experiment [2], in experiment [3], in [4], in experiment [5] and in [6] was > 100 µM (inactive) each time. Besides, the GI50 in experiment [7], in experiment [8], in experiment [9], in [10], in [11] and in experiment [12] was > 100 µM (inactive) each time. For the same compound, the GI50 in [13] was > 100 µM (inactive) and 75.7 µM (inactive); in experiment [14], > 100 µM (inactive); in experiment [15] it was > 100 µM (inactive); in [16], > 100 µM (inactive); in [17], > 100 µM (inactive); in [18], > 100 µM (inactive). In addition, the GI50 in [19] and in experiment [20] was > 100 µM (inactive) each time.
Regarding `NS(=O)(=O)c1ccc(/N=N/c2nc3[nH]cnc(=S)c3[nH]2)cc1`, the GI50 in [1] was 0.568 µM (active); in experiment [2] it was 1.59 µM (inactive); in experiment [3], 0.411 µM (active); in experiment [4] it was 0.82 µM (active); in [5] it was 10.6 µM (inactive); in experiment [6], 11.1 µM (inactive). Besides, the GI50 in [7] was 4.51 µM (inactive); in experiment [8] it was 0.593 µM (active); in [9] it was 1.16 µM (inactive); in experiment [10], 0.134 µM (active); in experiment [11], 2.43 µM (inactive); in [12] it was 0.564 µM (active). For the same compound, the GI50 was 2.05 µM (inactive) in [13]; 2.29 µM (inactive) in [14]; 0.638 µM (active) in experiment [15]; 1.34 µM (inactive) in [16]; 0.31 µM (active) in [17]; 2.94 µM (inactive) in [18]. Moreover, the GI50 in experiment [19] is 6.41 µM (inactive); in experiment [20], 0.975 µM (active).
Consider `CCCCCCCCCCCCCCCC(=O)Nc1ccn(C2CCC(COP(=O)(O)OCC3OC(n4cc(F)c(=O)[nH]c4=O)CC3OC(C)=O)O2)c(=O)n1` (stereo not given), for which the GI50 in [1] is 8.04 µM (inactive); in experiment [2] it was 6.71 µM (inactive); in experiment [3] it was 29.2 µM (inactive); in experiment [4] it was 0.531 µM (active); in experiment [5], 17.9 µM (inactive); in [6], 5.62 µM (inactive). The GI50 was 14.1 µM (inactive) in [7]; 10.6 µM (inactive) in [8]; 18.3 µM (inactive) in experiment [9]; 9.31 µM (inactive) in [10]; 13.1 µM (inactive) in [11]; 5.06 µM (inactive) in experiment [12]. Also, the GI50 in experiment [13] is 14.9 µM (inactive); in experiment [14], 16.9 µM (inactive); in experiment [15], 9.25 µM (inactive); in experiment [16], 11.2 µM (inactive); in experiment [17], 2.88 µM (inactive); in [18], 14.7 µM (inactive). The GI50 in [19] was 29.2 µM (inactive); in [20] it was 15.5 µM (inactive).
